Reference: patent US20220401514A1, “ANTIMICROBIAL, BACTERIOPHAGE-DERIVED POLYPEPTIDES AND THEIR USE AGAINST GRAM-NEGATIVE AND ACID-FAST BACTERIA” (CONTRAFECT CORPORATION, priority 2019, published 2022)

What was measured:
[1] = tested on: carbapenem-resistant P. aeruginosa clinical isolate CFS-1292; test: MIC by modified CLSI broth microdilution against P. aeruginosa CFS-1292 (CAA, CAA + human serum); type: cell-based, Pseudomonas aeruginosa; conditions: for MIC (μg/mL) against CFS-1292 in 100% CAA (1st run/2nd run): 1st run or single value
[2] = tested on: Enterobacter cloacae; test: microbe, parasite or virus in culture; type: cell-based; conditions: for MIC: Enterobacter cloacae ATCC 13047, CAA supplemented with human serum
Description: (§1) Determination of Minimal Inhibitory Concentrations (MIC).
(§2) Additional MIC testing was performed for several peptides against the ESKAPE pathogens Escherichia coli, Enterobacter cloacae, Klebsiella pneumoniae, and Acinetobacter baumannii, in CAA supplemented with human serum (Table D).

[3] = tested on: Escherichia coli; test: microbe, parasite or virus in culture; type: cell-based; conditions: for MIC: Escherichia coli ATCC 25922, CAA supplemented with human serum
Description: as §1, §2

[4] = tested on: Klebsiella pneumoniae; type: cell-based; conditions: for MIC: Klebsiella pneumoniae HM-44, CAA supplemented with human serum
Description: as §1, §2

[5] = tested on: Acinetobacter baumannii; test: microbe, parasite or virus in culture; type: cell-based; conditions: for MIC: Acinetobacter baumannii ATCC BAA 747, CAA supplemented with human serum
[6] = Stability assessment in 100% CAA; type: in vitro ADME; set-up: unit not given beside the values
Description: Stability was assessed after incubation in 100% human serum at 37° C. after 10 minutes, 1 hour, and 2 hours.
Stability assessment was further conducted in 100% CAA and rabbit serum using the same methodology discussed above.

[7] = tested on: M. smegmatis; test: 45 hr MIC against M. smegmatis (NTM), Mueller Hinton broth; type: cell-based, Mycobacterium smegmatis; conditions: M. smegmatis MC^2 155, Run #1
[8] = tested on: P. aeruginosa strain CFS-1292; test: Checkerboard assay (FICI) with antibiotics, P. aeruginosa; type: cell-based, Pseudomonas aeruginosa; conditions: for Antibiotic FIC: P. aeruginosa CFS-1292; for Antibiotic MIC in checkerboard: P. aeruginosa CFS-1292, CAA + […] human serum
Description: Any known method to assess MIC may be used.
Checkerboards are constructed by first preparing columns of e.g., a 96-well polypropylene microtiter plate, wherein each well has the same amount of antibiotic diluted 2-fold along the horizontal axis. […] Bacteria are added to the drug combinations at concentrations of 1×10^5 […] in CAA, for example, with or without human serum or pulmonary surfactant. […] Summation fractional inhibitory concentrations (ΣFICs) are calculated for each drug and the minimum ΣFIC value (ΣFICmin) is used to determine the effect of the Chp peptide/antibiotic combination.
(§3) Checkerboard assays. […] Checkerboards were constructed by first preparing columns of a 96-well polypropylene microtiter plate, in which each well had the same amount of antibiotic diluted 2-fold along the horizontal axis. […] Summation fractional inhibitory concentration index (FICIs) were calculated for each drug and the minimum FICI was used to determine synergy. FICIs were calculated as follows: FICI=FIC A+FIC B, where FIC A is the MIC of each antibiotic in the combination/MIC of the each antibiotic alone, and FIC B is the MIC of each Chp peptide in the combination/MIC of each Chp peptide alone. The combination is considered synergistic when the FICI is ≤0.5, strongly additive when the FICI is >0.5 to <1, additive with the FICI is 1-<2, and antagonistic when the FICI is ≥2.
In the checkerboard assay, fractional inhibitory concentration index (FICI) values are calculated.

[9] = tested on: Klebsiella pneumoniae strain 1139; test: Checkerboard assay (FICI) with antibiotics, K. pneumoniae; type: cell-based; conditions: for Antibiotic FIC / Antibiotic MIC: checkerboard
Description: as §3

[10] = tested on: Acinetobacter baumannii strain 30; test: Checkerboard assay (FICI) with antibiotics, A. baumannii; type: cell-based; conditions: checkerboard
Description: as §3
The results are shown below in Tables 22-27.

[11] = tested on: LPS; test: Endotoxin neutralization, limulus amoebocyte lysate (LAL) enzyme assay, LPS binding; type: biochemical; conditions: LPS 0.8 EU/mL
Description: CHEM. […] The standard reference samples contained only LPS dissolved in pyrogen-free water. Solutions were mixed well and incubated at 24° C. for 1 hour, and the manufacturers' test procedure for quantitative detection of endotoxins was followed.

[12] = tested on: Pseudomonas aeruginosa; test: microbe, parasite or virus in culture; type: cell-based; conditions: P. aeruginosa isolates (n per peptide in table)
[13] = tested on: S. maltophilia; test: MIC against S. maltophilia isolates; type: cell-based, Stenotrophomonas maltophilia; conditions: S. maltophilia isolates (n per peptide in table)
Description: as §1
In addition to the results discussed above in Example 3, further testing was conducted on several Chp peptides. MIC values were determined against different species, including P. aeruginosa, K. pneumoniae, A. baumannii, E. cloacae, E. coli, and S. maltophilia, and the results are presented below in Tables 40-45, wherein n=number of isolates tested for each species and MIC is measured as μg/mL.

[14] = tested on: carbapenem-resistant bacterial strains; test: organism not typed; type: cell-based
Description: as §1

[15] = E. cloacae isolates (n per peptide in table)
[16] = E. coli isolates (n per peptide in table)
[17] = K. pneumoniae isolates (n per peptide in table)
[18] = A. baumannii isolates (n per peptide in table)

MSKKASRKSFTKGAVKVHKKNVPTRVPMRGGIRL [Gkh2]
MIC (μg/mL) against CFS-1292 in 100% CAA (1st run/2nd run) [1]: 16 µg/mL | MIC [2]: 8 µg/mL | MIC [3]: 1 µg/mL | MIC [4]: 16 µg/mL | MIC [5]: 8 µg/mL | MIC (100% CAA) [6]: 16 | 45 hr MIC [7]: 32 µg/mL

colistin [reference compound]
Antibiotic FIC ([8]; combined with Chp2-M1): 0.25 | Antibiotic MIC in checkerboard ([8]; combined with Chp2-M1): 0.01562 µg/mL | Antibiotic FIC ([8]; combined with Chp2): 0.25 | Antibiotic MIC in checkerboard ([8]; combined with Chp2): 0.01562 µg/mL | Antibiotic FIC ([8]; combined with Chp4-M1): 0.25 | Antibiotic MIC in checkerboard ([8]; combined with Chp4-M1): 0.03125 µg/mL | Antibiotic FIC ([8]; combined with Chp6-M1): 0.25 | Antibiotic MIC in checkerboard ([8]; combined with Chp6-M1): 0.01562 µg/mL | Antibiotic MIC in checkerboard ([8]; combined with Chp10-M1): 0.007806 µg/mL | Antibiotic FIC ([8]; combined with Unp2-M1): 0.25 | Antibiotic MIC in checkerboard ([8]; combined with Unp2-M1): 0.01562 µg/mL | Antibiotic FIC ([9]; in combination with Chp4-M1): 0.25 | Antibiotic MIC ([9]; in combination with Chp4-M1): 0.03125 µg/mL | Antibiotic MIC ([9]; in combination with Chp6-M1): 0.01562 µg/mL | Antibiotic FIC ([9]; in combination with Chp10-M1): 0.25 | Antibiotic MIC ([9]; in combination with Chp10-M1): 0.03125 µg/mL | Antibiotic MIC ([9]; in combination with Unp2-M1): 0.03125 µg/mL | Antibiotic MIC in checkerboard ([9]; combined with Chp2): 0.007812 µg/mL | Antibiotic MIC in checkerboard ([9]; combined with Chp2-M1): 0.01562 µg/mL | Antibiotic MIC ([10]; in combination with Chp2): 0.9766 ng/mL | Antibiotic FIC ([10]; in combination with Chp2-M1): 0.5 | Antibiotic FIC ([10]; in combination with Chp4-M1): 0.5 | Antibiotic MIC ([10]; in combination with Chp4-M1): 3.906 ng/mL | Antibiotic FIC ([10]; in combination with Chp6-M1): 0.25 | Antibiotic FIC ([10]; in combination with Chp10-M1): 0.25 | Antibiotic MIC ([10]; in combination with Chp10-M1): 0.9766 ng/mL | Antibiotic FIC ([10]; in combination with Unp2-M1): 0.5 | LPS binding ([11]; […]-64 μg/mL, 24° C., 1 hour): dose-dependent increases in LPS binding | % LPS Bound ([11]; peptide concentration 0.5 μg/mL): 22.5% | % LPS Bound ([11]; peptide concentration 1 μg/mL): 51.9% | % LPS Bound ([11]; peptide concentration 2 μg/mL): 74.2% | % LPS Bound ([11]; peptide concentration 4 μg/mL): 88.2% | % LPS Bound ([11]; peptide concentration 8 μg/mL): 92.4% | % LPS Bound ([11]; peptide concentration 16 μg/mL): 92.8% | % LPS Bound ([11]; peptide concentration 32 μg/mL): 92.2% | % LPS Bound ([11]; peptide concentration 64 μg/mL): 93.4%

MLTVWSDTPTIKRRKDMYRKRMSRKKSKKVFAKTAMKVNKRNHVKPMRGGYRI [Gkh3]
MIC (μg/mL) against CFS-1292 in 100% CAA (1st run/2nd run) [1]: 0.5 µg/mL | MIC (μg/mL) against CFS-1292 in CAA + […] human serum [1]: 1 µg/mL | MIC50 [12]: 8 µg/mL | MIC100 [12]: >8 µg/mL | MIC50 [2, 15]: 4 µg/mL | MIC100 [2, 15]: 4 µg/mL | MIC [2]: 4 µg/mL | MIC50 [3, 16]: 1 µg/mL | MIC100 [3, 16]: 4 µg/mL | MIC Range [3, 16]: 0.5 to 8 µg/mL | MIC [3]: 2 µg/mL | MIC50 [4, 17]: >8 µg/mL | MIC100 [4, 17]: >8 µg/mL | MIC [4]: 4 µg/mL | MIC50 [5, 18]: 0.5 µg/mL | MIC100 [5, 18]: 1 µg/mL | MIC Range [5, 18]: 0.25 to 1 µg/mL | MIC [5]: 4 µg/mL | MIC50 [13]: 8 µg/mL | MIC100 [13]: >8 µg/mL | MIC ([14]; carbapenem-resistant isolate PA19): 2 µg/mL | MIC ([14]; carbapenem-resistant isolate PA20): >8 µg/mL | MIC ([14]; carbapenem-resistant isolate PA21): >8 µg/mL | MIC ([14]; carbapenem-resistant isolate PA22): >8 µg/mL | MIC ([14]; carbapenem-resistant isolate PA23): 8 µg/mL | MIC ([14]; carbapenem-resistant isolate PA24): 8 µg/mL | MIC ([14]; carbapenem-resistant isolate WLC-452): 2 µg/mL | MIC (100% CAA) [6]: 0.5 | 45 hr MIC [7]: >128 µg/mL

MKRRKMTRKGSKRLFTATADKTKSINTAPPPMRGGIRL [Chp7]
MIC (μg/mL) against CFS-1292 in 100% CAA (1st run/2nd run) [1]: 16 µg/mL | MIC (μg/mL) against CFS-1292 in CAA + […] human serum [1]: 1 µg/mL | MIC [2]: >32 µg/mL | MIC [3]: 8 µg/mL | MIC [4]: 1 µg/mL | MIC [5]: >32 µg/mL | MIC (100% CAA) [6]: 8 | 45 hr MIC [7]: 128 µg/mL

MTKRDIEYRKALGLNPSEPLPKIVGAVTRHGATLKRPRVTALAR [SBR77]
MIC (μg/mL) against CFS-1292 in 100% CAA (1st run/2nd run) [1]: 4 µg/mL | MIC (μg/mL) against CFS-1292 in CAA + […] human serum [1]: >16 µg/mL | MIC (μg/mL) against CFS-1292 in CAA + […] human serum ([1]; listed as SBR77 (Sbr1)): 0.5 µg/mL | MIC (100% CAA) [6]: >64 | 45 hr MIC [7]: >64 µg/mL

MSSTLCRWAVKALRCTRVYKEFIWKPLVALSYVTLYLLSSVFLSQLSYPIGSWAV [Lvp1]
MIC (μg/mL) against CFS-1292 in 100% CAA (1st run/2nd run) [1]: >64 µg/mL | MIC (μg/mL) against CFS-1292 in CAA + […] human serum [1]: 0.5 µg/mL | MIC (μg/mL) against CFS-1292 in CAA + […] human serum ([1]; listed as Lvp1 + DTT): 2 µg/mL | MIC (100% CAA) [6]: >64 | 45 hr MIC [7]: >128 µg/mL
